Holding throughout (assay): NCI anticancer screen, dose series, 48 h
Assay [1] has as its system SK-OV-3.
For assay [2], the system named is SNB-75.
Assay [3] has as its system SF-539.
For assay [4], the system named is IGROV-1.
Assay [5] concerns SF-268.
Assay [6] relates to SN12C.
Assay [7] concerns HT-29.
Assay [8] relates to UACC-257.
Assay [9] deals with HCT-116.
For assay [10], the system named is KM-20L2.
Assay [11] relates to DMS-114.
The subject of assay [12] is SF-295.
In assay [13] the test system is XF498.
Assay [14] has as its system 786-0.

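Cultured in 96-well plates, cells were exposed to test compound for 48 hours across five concentrations. Here, GI50 denotes the concentration required for 50% inhibition of growth.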 The source made the active and inactive calls. Cut-off read from the data, not from the text of the source: active = GI50 up to about 1.1 µM and inactive = higher.

For the compound `C/C(CCOC1CCCCO1)=C(\C)[Si](C)(C)C` (stereo not drawn), the GI50 in [1] was > 10 µM (inactive); in assay [2] it was > 100 µM (inactive); in [3], > 100 µM (inactive); in assay [4], > 100 µM (inactive); in [5], > 100 µM (inactive); in assay [6], > 100 µM (inactive). Moreover, the GI50 in [7], in assay [8], in [9], in assay [10], in assay [11] and in assay [12] was > 100 µM (inactive) each time. For the same compound, the GI50 in assay [13] was > 100 µM (inactive).

On to `CN1C(=O)c2ccccc2NC(=O)c2cnn(C)c21`, for which the GI50 in [1], in assay [2], in [3], in [4], in assay [5] and in assay [6] was > 100 µM (inactive) in each case. For the same compound, the GI50 in assay [7] is > 100 µM (inactive); in assay [8], > 100 µM (inactive); in [9] it was > 21.6 µM (inactive); in [10], > 100 µM (inactive); in [11], > 100 µM (inactive); in assay [12], > 100 µM (inactive). Moreover, the GI50 in [13] is > 100 µM (inactive).

For `Nc1ccn(C2OC(COP(=O)(O)Oc3ccccc3)C(O)C2O)c(=O)n1` (stereo not drawn), the GI50 is > 100 µM (inactive) in assay [1]; > 100 µM (inactive) in assay [2]; 93.3 µM (inactive) in assay [3]; > 56.5 µM (inactive) in assay [4]; 20 µM (inactive) in assay [5]; 12.7 µM (inactive) in assay [6]. Moreover, the GI50 in assay [7] is > 100 µM (inactive); in assay [8], > 95.9 µM (inactive); in assay [9], 5.57 µM (inactive); in assay [10], > 39.7 µM (inactive); in assay [11], 13.7 µM (inactive); in assay [12], > 100 µM (inactive). The GI50 in [13] was < 0.01 µM (active).

Turning to `O=C(Nc1nnc(S)[nH]1)C(=O)C(c1cnc2ccc([N+](=O)[O-])cc2n1)[N+](=O)[O-]` (stereo not drawn), the GI50 in assay [1], in assay [2], in [3], in [4], in assay [5] and in [6] was > 100 µM (inactive) throughout. Besides, the GI50 in assay [7] is > 100 µM (inactive); in assay [8] it was > 100 µM (inactive); in assay [9] it was > 100 µM (inactive); in [10], 81.3 µM (inactive); in assay [11] it was 47 µM (inactive); in [14], > 100 µM (inactive). Also, the GI50 in assay [12] and in assay [13] was > 100 µM (inactive) in each case.
